These results are taken from patent US9212139B2, “Aryl substituted indoles and their use as blockers of sodium channels” (Purdue Pharma, L.P., priority 2010, dated 2015).

Molecules are shown by their SMILES. Where two headings read alike, the source gives them in different places.

One experiment addresses human Nav1.7 (Homo sapiens (Human), UniProt Q15858). As to the kind of experiment: FLIPR or FLIPR TETRA sodium dye assay with KCl and test article pre-incubation. In kind it is cell-based. An excerpt:
For dominant selection of the Nav1.7-expressing clones, the expression plasmid co-expressed the neomycin resistance gene. […] Recombinant beta and gamma subunits were not introduced into this cell line. Additional cell lines expressing recombinant Nav1.7 cloned from other species can also be used, alone or in combination with various beta subunits, gamma subunits or chaperones.
Cell maintenance: Unless otherwise noted, cell culture reagents were purchased from Mediatech of Herndon, Va. The recombinant Nav1.7/HEK293 cells were routinely cultured in growth medium consisting of Dulbecco's […] containing 10% fetal bovine serum (FBS, Hyclone, Thermo Fisher Scientific, Logan, Utah), 100 U/mL penicillin, […], 2-4 mM L-glutamine, and […]. For natural, non-recombinant cell lines, the selective antibiotic was omitted, and additional media formulations can be applied as needed.
The intensity of this emission, but not the wavelength range, is increased when the dye is exposed to Na^+ ions, which it can bind with partial selectivity. Cells expressing Nav1.7 or other sodium channels were loaded with the CoroNa™ Green dye immediately in advance of the fluorescence assay, and then, after agonist stimulation, the mobilization of Na^+ ions was detected as the Na^+ ions flowed from the extracellular fluid into the cytoplasm through the activated sodium channel pores. The dye was stored in the dark as a lyophilized powder, and then an aliquot was dissolved immediately before the cell loading procedure, according to the instructions of the manufacturer to a stock concentration of 10 mM in DMSO. It was then diluted in the assay buffer to a 4× concentrated working solution, so that the final concentration of dye in the cell loading buffer was 5 μM.
These scorpion toxins inhibit the fast inactivation of their cognate target channels. Stock solutions of the agonists were prepared to 40 mM in DMSO (veratridine) and 1 mg/mL in dH2O (scorpion venom), and then diluted to make a 4× or 2× stock (depending on the particular assay) in assay buffer, the final concentration being 100 μM (veratridine) and 10 μg/mL (scorpion venom). Both of the agonists were purchased from Sigma Aldrich, St. Louis, Mo.
Test Compounds: Test compounds were dissolved in DMSO to yield 10 mM stock solutions. […] If a particular test article appeared to be especially potent, then the concentration curve was adjusted, e.g., to 10-fold lower concentrations, in order to perform the dose-response in a more relevant concentration range. Compound dilutions were added during the dye-loading and pre-stimulation step, and then again during the fluorescence assay, early in the kinetic read.
Data Analysis: The data were analyzed according to methods known to those skilled in the art or using the GraphPad® Prism 4.0 Program (available from GraphPad Software, San Diego, Calif.) to determine the IC50 value for the test article. At least one standard reference compound was evaluated during each experiment.
FLIPR® or FLIPR^TETRA® sodium dye assay with KCl and test article pre-incubation: Cells were prepared by plating the recombinant HEK293 cells or other host cells expressing either recombinant or non-recombinant, native, Nav1.7 alpha subunit, alone or in combination with various beta and gamma subunits at a density of ˜40,000 cells/well into a 96-well black, clear-bottom, PDL-coated plate. The assay can be adapted to 384-well or 1,536-well format, if desired, using proportionately less cells and media. […] For counter-screens of other voltage-gated sodium channels, the procedure was very similar, though optimal densities of cells, media and subsequent assay components can be fine-tuned for the particular cell line or isoform.

For another experiment, the target named is hNav1.7 (Homo sapiens (Human), UniProt Q15858). As to the kind of experiment: Electrophysiology (EP) assay, whole-cell patch clamp. In kind it is cell-based. As to conditions: read-out: EP Nav1.7 Ki. How it is done:
Cells: The hNav1.7 expressing HEK-293 cells were plated on 35 mm culture dishes pre-coated with poly-D-lysine in standard DMEM culture media (Mediatech, Inc., Herndon, Va.) and incubated in a 5% CO2 incubator at 37° C. Cultured cells were used approximately 12-48 hours after plating.
Electrophysiology: On the day of experimentation, the 35 mm dish was placed on the stage of an inverted microscope equipped with a perfusion system that continuously perfuses the culture dish with fresh recording media. A gravity driven superfusion system was used to apply test solutions directly to the cell under evaluation. This system consists of an array of glass pipette glass connected to a motorized horizontal translator. The outlet of the shooter was positioned approximately 100 μm from the cell of interest.
Gigaseals were formed and the whole-cell configuration was established in voltage clamp mode, and membrane currents generated by hNav1.7 were recorded in gap-free mode. […] Signals were sampled at 50 kHz and low pass filtered at 3 kHz.
The voltage clamp protocol to examine hNav1.7 currents was as follows. First, the standard current-voltage relationship was tested by pulsing the cell from the holding voltage (Vh) of −120 mV by a series of 5 msec long square-shaped test pulses incrementing in +10 mV steps over the membrane voltage range of −90 mV to +60 mV at the pace of stimulation of 0.5 Hz. This procedure determines the voltage that elicits the maximal current (Vmax). […] This procedure determines the voltage of full inactivation (Vfull). Third, the cell was repeatedly stimulated with the following protocol, first in the absence of the test compound then in its presence. The protocol consisted of depolarizing the cell from the holding potential of −120 mV to the Vfull value for 4.5 seconds then repolarizing the cell to the holding potential for 10 ms before applying the test pulse to the Vmax for 5 ms. The amount of inhibition produced by the test compound was determined by comparing the current amplitude elicited by the test pulse in the absence and presence of the compound.
Vehicle solution used to establish base line was also contacting 0.3% DMSO.
Data analysis: Data was analyzed off-line using Clampfit software (pClamp, v. 8; Axon Instruments) and graphed using GraphPad Prizm (v. 4.0) software.
For orientation: The patch-clamp technique gives a direct electrical read-out from membranes.

Experiment [1] relates to spinal nerve ligation (SNL; Chung model of neuropathic pain). Briefly: Mechanical hyperalgesia (paw withdrawal threshold) in the Chung spinal nerve ligation model. It is filed as in vivo. The conditions noted are these: rats, intraperitoneal (i.p.) administration, from 1 to 3 hours. How it is done:
Test Animals: Each experiment uses rats weighing between 200-260 g at the start of the experiment. The rats are group-housed and have free access to food and water at all times, except prior to oral administration of a test compound when food is removed for 16 hours before dosing. A control group acts as a comparison to rats treated with a compound of Formulae I-XX. The control group is administered the carrier as used for the test compound. The volume of carrier administered to the control group is the same as the volume of carrier and test compound administered to the test group.
In the Chung model, the spinal nerve ligation model of neuropathic pain was used to produce mechanical hyperalgesia, thermal hyperalgesia and tactile allodynia in rats. […] The animals were assessed for response to noxious mechanical stimuli by determining PWT, as described below, prior to surgery (baseline), then immediately prior to and 1, 3, and 5 hours after being administered a compound of Formulae I-XX for the left rear paw of the animal. The animals can also be assessed for response to noxious thermal stimuli or for tactile allodynia, as described below. […]
Mechanical Hyperalgesia: Sensitivity to noxious mechanical stimuli can be measured in animals using the paw pressure test to assess mechanical hyperalgesia. […] PWT is determined once for each rat at each time point. […]

Where [2] appears, read: sodium dye assay with KCl, recombinant human Nav1.7 in HEK293 cells, value ± SEM.
Setting [3] is: whole-cell patch clamp, hNav1.7 expressing HEK-293 cells.
[4] abbreviates: read-out: FLIPR Nav1.7 IC50 (μM) ± SEM.

Chain of human Nav1.7 (Q15858 other isoform, or with tags, fused parts or gaps): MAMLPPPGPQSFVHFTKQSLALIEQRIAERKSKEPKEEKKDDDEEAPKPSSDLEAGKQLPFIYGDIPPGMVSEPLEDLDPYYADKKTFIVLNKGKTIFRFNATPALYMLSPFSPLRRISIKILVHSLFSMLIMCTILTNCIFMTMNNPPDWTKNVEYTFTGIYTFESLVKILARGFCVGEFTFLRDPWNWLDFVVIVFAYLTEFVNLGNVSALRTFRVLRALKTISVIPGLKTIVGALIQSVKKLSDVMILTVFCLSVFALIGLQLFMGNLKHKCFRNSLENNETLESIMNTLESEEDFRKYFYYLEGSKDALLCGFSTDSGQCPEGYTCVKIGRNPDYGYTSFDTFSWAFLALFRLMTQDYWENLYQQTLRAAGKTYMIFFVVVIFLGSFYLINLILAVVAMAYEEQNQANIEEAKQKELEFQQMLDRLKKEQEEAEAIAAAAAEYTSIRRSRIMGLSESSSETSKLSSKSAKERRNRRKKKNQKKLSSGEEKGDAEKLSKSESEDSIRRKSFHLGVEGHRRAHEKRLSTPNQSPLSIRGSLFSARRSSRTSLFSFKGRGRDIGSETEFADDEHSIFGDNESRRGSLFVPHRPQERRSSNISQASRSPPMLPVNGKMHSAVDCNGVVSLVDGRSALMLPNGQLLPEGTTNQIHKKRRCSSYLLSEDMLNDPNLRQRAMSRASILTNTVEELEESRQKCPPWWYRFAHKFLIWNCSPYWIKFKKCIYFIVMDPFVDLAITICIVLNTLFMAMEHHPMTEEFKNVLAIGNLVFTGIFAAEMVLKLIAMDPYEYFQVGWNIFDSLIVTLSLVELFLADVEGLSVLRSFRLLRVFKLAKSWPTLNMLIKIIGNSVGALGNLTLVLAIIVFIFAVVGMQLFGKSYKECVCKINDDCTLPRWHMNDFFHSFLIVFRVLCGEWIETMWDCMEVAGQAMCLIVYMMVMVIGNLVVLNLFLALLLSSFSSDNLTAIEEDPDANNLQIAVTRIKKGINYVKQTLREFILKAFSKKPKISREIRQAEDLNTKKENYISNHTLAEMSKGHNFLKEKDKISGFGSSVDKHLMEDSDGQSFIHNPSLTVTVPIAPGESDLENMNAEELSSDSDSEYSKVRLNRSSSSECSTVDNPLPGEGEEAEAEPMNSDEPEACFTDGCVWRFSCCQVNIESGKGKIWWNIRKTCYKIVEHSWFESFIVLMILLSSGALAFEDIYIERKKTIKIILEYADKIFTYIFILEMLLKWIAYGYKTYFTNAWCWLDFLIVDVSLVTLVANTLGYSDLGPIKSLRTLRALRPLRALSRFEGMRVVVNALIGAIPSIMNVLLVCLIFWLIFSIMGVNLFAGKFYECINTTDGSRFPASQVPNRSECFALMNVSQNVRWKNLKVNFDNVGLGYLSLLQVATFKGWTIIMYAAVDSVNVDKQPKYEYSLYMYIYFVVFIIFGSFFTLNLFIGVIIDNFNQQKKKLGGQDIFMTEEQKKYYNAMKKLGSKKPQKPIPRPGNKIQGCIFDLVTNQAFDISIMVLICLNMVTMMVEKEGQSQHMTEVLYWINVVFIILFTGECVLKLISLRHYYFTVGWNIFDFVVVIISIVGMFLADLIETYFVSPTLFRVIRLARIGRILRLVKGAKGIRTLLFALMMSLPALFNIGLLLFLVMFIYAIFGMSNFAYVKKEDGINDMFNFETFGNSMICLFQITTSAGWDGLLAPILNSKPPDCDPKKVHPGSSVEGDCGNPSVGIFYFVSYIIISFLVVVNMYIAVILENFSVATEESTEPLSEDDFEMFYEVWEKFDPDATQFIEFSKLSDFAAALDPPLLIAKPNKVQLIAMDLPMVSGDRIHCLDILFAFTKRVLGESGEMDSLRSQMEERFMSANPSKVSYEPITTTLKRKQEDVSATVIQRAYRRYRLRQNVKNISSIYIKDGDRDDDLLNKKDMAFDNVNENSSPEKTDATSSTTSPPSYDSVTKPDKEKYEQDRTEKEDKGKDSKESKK
Chain of hNav1.7 (Q15858 other isoform, or with tags, fused parts or gaps): as above

By IC50 is commonly meant the concentration needed to halve the response being measured. Broadly, the Ki is a measure of affinity in units of concentration, obtained from inhibition or displacement. For the compound `N#Cc1cc(Oc2ccc(-n3cc(C(O)C(N)=O)c4ccccc43)cc2)ccc1C(F)(F)F` (stereo not drawn) [Compound 60, 2-(1-(4-(3-Cyano-4-(trifluoromethyl)phenoxy)phenyl)-1H-indol-3-yl)-2-hydroxyacetamide], the IC50 at human Nav1.7 (setting [2]) was found to be 0.224 ± 0.038 µM. Besides, the inhibition constant Ki at hNav1.7 (setting [3]) came out at 400 nM. Besides, in experiment [1], the “reversal of mechanical hyperalgesia” value is given as 10%-25%.

Consider `NC(CO)Cc1c[nH]c2c(-c3ccc(Oc4ccccc4)cc3)cccc12` (stereo not drawn) [Compound 22, 2-Amino-3-[7-(4-phenoxyphenyl)-1H-indol-3-yl]propan-1-ol], for which the IC50 on human Nav1.7 (setting [4]) is 0.151 ± 0.016 µM. Also, at hNav1.7, the Ki is 830 nM.

As to `NC(CO)Cc1cn(-c2ccc(Oc3ccccc3)cc2)c2ccccc12` (stereo not drawn) [Compound 34, 2-Amino-3-[1-(4-phenoxyphenyl)-1H-indol-3-yl]propan-1-ol], the IC50 at human Nav1.7 (setting [2]) was 0.389 ± 0.081 µM. Further, the Ki on hNav1.7 (setting [3]) was found to be 260 nM.

As to `N#Cc1cc(Oc2ccc(-n3cc(C[C@@H](N)CO)c4ccccc43)cc2)ccc1C(F)(F)F` [Compound 44, (R)-5-{4-[3-(2-Amino-3-hydroxypropyl)-1H-indol-1-yl]phenoxy}-2-(trifluoromethyl)benzonitrile], on human Nav1.7 (setting [2]), the IC50 came out at 0.304 ± 0.046 µM. Moreover, the inhibitory constant (Ki) at hNav1.7 (setting [3]) came to 290 nM.

For the compound `NC(=O)C(N)Cc1cn(-c2ccc(Oc3ccccc3)cc2)c2ccccc12` (stereo not drawn) [Compound 35, 2-Amino-3-[1-(4-phenoxyphenyl)-1H-indol-3-yl]propionamide], at human Nav1.7 (setting [2]), the IC50 worked out at 0.278 ± 0.061 µM. Besides, the Ki at hNav1.7 (setting [3]) is 40 nM.

Turning to `CN(C)CCc1cn(-c2ccc(Oc3ccccc3)cc2)c2ccc(C[C@H](N)CO)cc12` [Compound 48, (S)-2-Amino-3-[3-(2-(dimethylamino)ethyl)-1-(4-phenoxyphenyl)-1H-indol-5-yl]propan-1-ol], the IC50 at human Nav1.7 (setting [2]) was 3.82 ± 1.02 µM. Further, the Ki on hNav1.7 (setting [3]) amounted to 1310 nM.

As to `COC(=O)c1ccc2c(C(O)C(N)=O)cn(-c3ccc(Oc4ccc(C(F)(F)F)c(C#N)c4)cc3)c2c1` (stereo not drawn) [Compound 65, Methyl 3-(2-amino-1-hydroxy-2-oxoethyl)-1-(4-(3-cyano-4-(trifluoromethyl)phenoxy)phenyl)-1H-indole-6-carboxylate], the IC50 on human Nav1.7 (setting [2]) is 0.536 ± 0.129 µM. The Ki on hNav1.7 (setting [3]) came to 1910 nM.

As to `N#Cc1cc(Oc2ccc(-n3cc(C(O)C(=O)NC[C@H](O)CO)c4ccccc43)cc2)ccc1C(F)(F)F` (stereo partly drawn) [Compound 69, 2-(1-(4-(3-Cyano-4-(trifluoromethyl)phenoxy)phenyl)-1H-indol-3-yl)-N—((S)-2,3-dihydroxypropyl)-2-hydroxyacetamide], the IC50 on human Nav1.7 (setting [2]) is 0.732 ± 0.113 µM. The Ki at hNav1.7 (setting [3]) amounted to 2670 nM.

Regarding `N#Cc1cc(Oc2ccc(-n3cc(C[C@H](O)CO)c4ccccc43)cc2)ccc1C(F)(F)F` [Compound 54, (S)-5-{4-[3-(2,3-Dihydroxypropyl)-1H-indol-1-yl]phenoxy}-2-(trifluoromethyl)benzonitrile], the IC50 at human Nav1.7 (setting [2]) amounted to 0.21 ± 0.035 µM. Besides, the Ki on hNav1.7 (setting [3]) worked out at 70 nM.

As to `NC(=O)c1cccc2c1c(C[C@H](O)CO)cn2-c1ccc(Oc2ccc(F)cc2)cc1` [Compound 122, (S)-3-(2,3-Dihydroxypropyl)-1-(4-(4-fluorophenoxy)phenyl)-1H-indole-4-carboxamide], at human Nav1.7 (setting [2]), the IC50 came out at 0.222 ± 0.036 µM. Besides, the Ki on hNav1.7 (setting [3]) was determined as 300 nM.

With `N#Cc1ccc(Oc2ccc(-n3cc(C[C@H](O)CO)c4ncccc43)cc2)cc1` [Compound 175, (S)-4-(4-(3-(2,3-Dihydroxypropyl)-1H-pyrrolo[3,2-b]pyridin-1-yl)phenoxy)benzonitrile], at human Nav1.7 (setting [2]), the IC50 was 0.549 ± 0.197 µM. Besides, the Ki on hNav1.7 (setting [3]) came out at 170 nM.

Regarding `NC(=O)c1nn(-c2ccc(Oc3ccc(C(F)(F)F)cn3)cc2)c2ccccc12` [Compound 155, 1-(4-((5-(Trifluoromethyl)pyridin-2-yl)oxy)phenyl)-1H-indazole-3-carboxamide], the IC50 at human Nav1.7 (setting [4]) was 0.362 ± 0.06 µM. The Ki at hNav1.7 was 250 nM.

Take `NC(=O)C(N)Cc1c[nH]c2ccc(-c3ccc(Oc4ccccc4)cc3)cc12` (stereo not drawn) [Compound 8, 2-Amino-3-[5-(4-phenoxyphenyl)-1H-indol-3-yl]propionamide]: the IC50 at human Nav1.7 (setting [2]) was 0.399 ± 0.024 µM. The Ki at hNav1.7 (setting [3]) came to 670 nM.
